This passage reports IC50 results from patent US12172983B2, “EGFR inhibitors” (Blueprint Medicines Corporation, priority 2019, dated 2024).

One assay deals with T1, EGFR (L858R T790M C797S) (Homo sapiens, UniProt P00533, C797S/L858R/T790M).
T1 construct: purchased SignalChem E10-122VG
The assay can be described thus: Biochemical EGFR inhibition assay (Caliper mobility shift), EGFR LRTMCS mutant. The conditions noted are these: inhibitory activity against EGFR LRTMCS mutant; apparent IC50; read-out: Ext Enz LRTMCS. An outline of the steps: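 Caliper mobility shift read-out: product and substrate peptides separated by electrophoresis and quantified. Reactions at 25° C. taken to 10–20% peptide phosphorylation, quenched with 35 mM EDTA. Apparent IC50 from percent activity vs log [compound].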

The subject of assay [1] is phosphorylation of EGFR (Tyr1068) in NCI-H1975 cell line that harbors the EGFR L858R T790M mutations. The assay can be described thus: NCI-H1975 pEGFR AlphaLISA assay. The format is cell-based. The conditions noted are these: 4-5 hours incubation, read-out: Ext pEGFR H1975. An outline of the steps:
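NCI-H1975 cells (EGFR L858R/T790M) seeded overnight, then treated with compound for 4-5 h at 37 °C/5% CO2. After lysis, p-EGFR (Tyr1068) quantified by AlphaLISA SureFire Ultra with acceptor then donor beads; IC50 fitted from percent inhibition versus log concentration.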
In general terms: Bead proximity is the source of the signal in Alpha formats.

Setting [2] is: Homo sapiens, NCI-H1975, inhibition of phosphorylation of mutant EGFR in NCI-H1975 cells.
Where [3] appears, read: inhibition of phosphorylation of mutant EGFR in NCI-H1975 cells.

Read-outs that look alike come from different tables or passages of the source.

T1 sequence (P00533 25-1210 T790M/C797S/L858R): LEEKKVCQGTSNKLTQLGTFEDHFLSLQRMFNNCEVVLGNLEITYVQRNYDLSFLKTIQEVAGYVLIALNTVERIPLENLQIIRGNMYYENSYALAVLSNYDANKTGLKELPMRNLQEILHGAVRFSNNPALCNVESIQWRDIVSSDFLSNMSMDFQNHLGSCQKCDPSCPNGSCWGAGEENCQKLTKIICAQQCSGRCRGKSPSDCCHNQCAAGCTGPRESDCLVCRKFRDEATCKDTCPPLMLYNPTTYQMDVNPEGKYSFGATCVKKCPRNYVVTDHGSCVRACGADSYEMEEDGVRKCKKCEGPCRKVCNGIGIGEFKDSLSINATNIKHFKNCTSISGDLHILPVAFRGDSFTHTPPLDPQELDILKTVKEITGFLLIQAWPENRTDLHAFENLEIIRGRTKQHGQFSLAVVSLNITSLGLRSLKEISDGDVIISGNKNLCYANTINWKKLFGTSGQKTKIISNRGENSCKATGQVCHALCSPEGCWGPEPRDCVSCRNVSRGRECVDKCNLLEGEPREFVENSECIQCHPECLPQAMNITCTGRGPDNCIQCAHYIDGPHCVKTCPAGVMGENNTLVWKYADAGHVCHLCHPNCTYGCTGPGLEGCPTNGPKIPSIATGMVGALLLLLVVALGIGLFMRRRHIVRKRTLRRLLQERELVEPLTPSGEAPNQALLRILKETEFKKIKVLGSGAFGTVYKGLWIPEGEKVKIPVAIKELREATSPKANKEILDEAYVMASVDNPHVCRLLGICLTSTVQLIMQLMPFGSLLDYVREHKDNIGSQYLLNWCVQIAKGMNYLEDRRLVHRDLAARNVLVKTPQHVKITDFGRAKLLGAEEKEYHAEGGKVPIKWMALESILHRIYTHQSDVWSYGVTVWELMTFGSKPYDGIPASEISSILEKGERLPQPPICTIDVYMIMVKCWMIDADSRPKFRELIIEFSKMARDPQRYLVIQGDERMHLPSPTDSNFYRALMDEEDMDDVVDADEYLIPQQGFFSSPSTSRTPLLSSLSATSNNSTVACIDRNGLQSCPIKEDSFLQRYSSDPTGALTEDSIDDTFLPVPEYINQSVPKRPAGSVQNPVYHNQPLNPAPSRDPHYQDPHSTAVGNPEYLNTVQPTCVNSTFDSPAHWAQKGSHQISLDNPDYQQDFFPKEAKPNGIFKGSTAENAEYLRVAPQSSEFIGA

As to `[2H]C([2H])([2H])O[C@H]1CCN(c2nccc(Nc3cc4c(C(C)C)cnc(N5C[C@H](CS(C)(=O)=O)[C@H]5C)c4cn3)n2)C[C@H]1F` (single isomer, unassigned) [Compound 285], the results for the IC50 (on EGFR (L858R T790M C797S); in assay [1] (setting [2])) were not above 15 nM and not above 10 nM, respectively.

In the case of `[2H]C([2H])([2H])O[C@H]1CCN(c2nccc(Nc3cc4c(C(C)C)ccc(N5CC(CS(C)(=O)=O)C5)c4cn3)n2)CC1(F)F` (single isomer, unassigned) [Compound 286, N-{2-[(4S)-3,3-difluoro-4-(^2H3)methoxypiperidin-1-yl]pyrimidin-4-yl}-8-[3-(methanesulfonylmethyl)azetidin-1-yl]-5-(propan-2-yl)isoquinolin-3-amine or N-{2-[(4R)-3,3-difluoro-4-(^2H3)methoxypiperidin-1-yl]pyrimidin-4-yl}-8-[3-(methanesulfonylmethyl)azetidin-1-yl]-5-(propan-2-yl)isoquinolin-3-amine], the IC50 lay within 15.1 to 20 nM on EGFR (L858R T790M C797S) and 10.1 to 20 nM in assay [1] (setting [2]).

With `[2H]C([2H])([2H])O[C@H]1CCN(c2nccc(Nc3cc4c(C(C)C)ccc(N5CC(CS(C)(=O)=O)C5)c4cn3)n2)CC1(F)F` (single isomer, unassigned) [Compound 287, N-{2-[(4R)-3,3-difluoro-4-(^2H3)methoxypiperidin-1-yl]pyrimidin-4-yl}-8-[3-(methanesulfonylmethyl)azetidin-1-yl]-5-(propan-2-yl)isoquinolin-3-amine or N-{2-[(4S)-3,3-difluoro-4-(^2H3)methoxypiperidin-1-yl]pyrimidin-4-yl}-8-[3-(methanesulfonylmethyl)azetidin-1-yl]-5-(propan-2-yl)isoquinolin-3-amine], the IC50 on EGFR (L858R T790M C797S) was in the range of 20.1 to 30 nM; in assay [1] (setting [3]) it was 10.1 to 20 nM.

For the molecule `CO[C@@H]1[C@H](O)CN(c2nccc(Nc3cc4c(C(C)C)ccc(N5CC(CS(C)(=O)=O)C5)c4cn3)n2)CC1(F)F` (single isomer, unassigned) [Compound 291, (3R,4R)-5,5-difluoro-1-[4-({8-[3-(methanesulfonylmethyl)azetidin-1-yl]-5-(propan-2-yl)isoquinolin-3-yl}amino)pyrimidin-2-yl]-4-methoxypiperidin-3-ol or (3S,4S)-5,5-difluoro-1-[4-({8-[3-(methanesulfonylmethyl)azetidin-1-yl]-5-(propan-2-yl)isoquinolin-3-yl}amino)pyrimidin-2-yl]-4-methoxypiperidin-3-ol], the IC50 is not above 15 nM at EGFR (L858R T790M C797S) and not above 10 nM in assay [1] (setting [3]).

Take `CCS(=O)(=O)CC1CN(c2ccc(C(C)C)c3cc(Nc4ccnc(N5C[C@@H](O)[C@@H](OC)C(F)(F)C5)n4)ncc23)C1` (single isomer, unassigned) [Compound 294, (3R,4R)-1-{4-[(8-{3-[(ethanesulfonyl)methyl]azetidin-1-yl}-5-(propan-2-yl)isoquinolin-3-yl)amino]pyrimidin-2-yl}-5,5-difluoro-4-methoxypiperidin-3-ol or (3S,4S)-1-{4-[(8-{3-[(ethanesulfonyl)methyl]azetidin-1-yl}-5-(propan-2-yl)isoquinolin-3-yl)amino]pyrimidin-2-yl}-5,5-difluoro-4-methoxypiperidin-3-ol]: the IC50 was 20.1 to 30 nM at EGFR (L858R T790M C797S) and not above 10 nM in assay [1] (setting [2]).

For `CO[C@H]1CCN(c2nccc(Nc3cc4c(C(C)C)ccc(N5C[C@H](CS(C)(=O)=O)[C@H]5C)c4cn3)n2)C[C@H]1OCCO` (single isomer, unassigned) [Compound 295, 2-{[(3R,4S)-1-[4-({8-[(2R,3S)-3-(methanesulfonylmethyl)-2-methylazetidin-1-yl]-5-(propan-2-yl)isoquinolin-3-yl}amino)pyrimidin-2-yl]-4-methoxypiperidin-3-yl]oxy}ethan-1-ol or 2-{[(3S,4R)-1-[4-({8-[(2R,3S)-3-(methanesulfonylmethyl)-2-methylazetidin-1-yl]-5-(propan-2-yl)isoquinolin-3-yl}amino)pyrimidin-2-yl]-4-methoxypiperidin-3-yl]oxy}ethan-1-ol], the IC50 at EGFR (L858R T790M C797S) is not above 15 nM; in assay [1] (setting [2]), not above 10 nM.

In the case of `CO[C@@H]1CCN(c2nccc(Nc3cc4c(C(C)C)ccc(N5C[C@H](CS(C)(=O)=O)[C@H]5C)c4cn3)n2)C[C@@H]1OCCO` (single isomer, unassigned) [Compound 296, 2-{[(3S,4R)-1-[4-({8-[(2R,3S)-3-(methanesulfonylmethyl)-2-methylazetidin-1-yl]-5-(propan-2-yl)isoquinolin-3-yl}amino)pyrimidin-2-yl]-4-methoxypiperidin-3-yl]oxy}ethan-1-ol or 2-{[(3R,4S)-1-[4-({8-[(2R,3S)-3-(methanesulfonylmethyl)-2-methylazetidin-1-yl]-5-(propan-2-yl)isoquinolin-3-yl}amino)pyrimidin-2-yl]-4-methoxypiperidin-3-yl]oxy}ethan-1-ol], the IC50 fell in the range of 30.1 to 100 nM on EGFR (L858R T790M C797S) and 10.1 to 20 nM in assay [1] (setting [2]).

As to `CNCCO[C@@H]1CCN(c2nccc(Nc3cc4c(C(C)C)ccc(N5C[C@H](CS(C)(=O)=O)[C@H]5C)c4cn3)n2)CC1(F)F` (single isomer, unassigned) [Compound 300, N-{2-[(4R)-3,3-difluoro-4-[2-(methylamino)ethoxy]piperidin-1-yl]pyrimidin-4-yl}-8-[(2R,3S)-3-(methanesulfonylmethyl)-2-methylazetidin-1-yl]-5-(propan-2-yl)isoquinolin-3-amine or N-{2-[(4S)-3,3-difluoro-4-[2-(methylamino)ethoxy]piperidin-1-yl]pyrimidin-4-yl}-8-[(2R,3S)-3-(methanesulfonylmethyl)-2-methylazetidin-1-yl]-5-(propan-2-yl)isoquinolin-3-amine], the IC50 at EGFR (L858R T790M C797S) was not above 15 nM; in assay [1] (setting [2]), not above 10 nM.

As for `CNCCO[C@@H]1CCN(c2nccc(Nc3cc4c(C(C)C)ccc(N5C[C@H](CS(C)(=O)=O)[C@H]5C)c4cn3)n2)CC1(F)F` (single isomer, unassigned) [Compound 301, N-{2-[(4S)-3,3-difluoro-4-[2-(methylamino)ethoxy]piperidin-1-yl]pyrimidin-4-yl}-8-[(2R,3S)-3-(methanesulfonylmethyl)-2-methylazetidin-1-yl]-5-(propan-2-yl)isoquinolin-3-amine or N-{2-[(4R)-3,3-difluoro-4-[2-(methylamino)ethoxy]piperidin-1-yl]pyrimidin-4-yl}-8-[(2R,3S)-3-(methanesulfonylmethyl)-2-methylazetidin-1-yl]-5-(propan-2-yl)isoquinolin-3-amine], the IC50 at EGFR (L858R T790M C797S) was not above 15 nM; in assay [1] (setting [3]) it was not above 10 nM.

Take `CCS(=O)(=O)C[C@H]1CN(c2ccc(C(C)C)c3cc(Nc4ccnc(N5CC[C@@H](OCCO)C(F)(F)C5)n4)ncc23)[C@@H]1C` (single isomer, unassigned) [Compound 302, 2-{[(4R)-1-[4-({8-[(2R,3S)-3-[(ethanesulfonyl)methyl]-2-methylazetidin-1-yl]-5-(propan-2-yl)isoquinolin-3-yl}amino)pyrimidin-2-yl]-3,3-difluoropiperidin-4-yl]oxy}ethan-1-ol or 2-{[(4S)-1-[4-({8-[(2R,3S)-3-[(ethanesulfonyl)methyl]-2-methylazetidin-1-yl]-5-(propan-2-yl)isoquinolin-3-yl}amino)pyrimidin-2-yl]-3,3-difluoropiperidin-4-yl]oxy}ethan-1-ol]: the results for the IC50 (on EGFR (L858R T790M C797S); in assay [1] (setting [2])) were 15.1 to 20 nM and not above 10 nM, respectively.

Consider `CCS(=O)(=O)C[C@H]1CN(c2ccc(C(C)C)c3cc(Nc4ccnc(N5CC[C@@H](OCCO)C(F)(F)C5)n4)ncc23)[C@@H]1C` (single isomer, unassigned) [Compound 303, 2-{[(4S)-1-[4-({8-[(2R,3S)-3-[(ethanesulfonyl)methyl]-2-methylazetidin-1-yl]-5-(propan-2-yl)isoquinolin-3-yl}amino)pyrimidin-2-yl]-3,3-difluoropiperidin-4-yl]oxy}ethan-1-ol or 2-{[(4R)-1-[4-({8-[(2R,3S)-3-[(ethanesulfonyl)methyl]-2-methylazetidin-1-yl]-5-(propan-2-yl)isoquinolin-3-yl}amino)pyrimidin-2-yl]-3,3-difluoropiperidin-4-yl]oxy}ethan-1-ol], for which the IC50 was 15.1 to 20 nM at EGFR (L858R T790M C797S) and not above 10 nM in assay [1] (setting [3]).

For `CC(C)c1ccc(N2C[C@H](CS(C)(=O)=O)[C@H]2C)c2cnc(Nc3ccnc(N4CC[C@@H](OCCN(C)C)C(F)(F)C4)n3)cc12` (single isomer, unassigned) [Compound 304, N-{2-[(4R)-4-[2-(dimethylamino)ethoxy]-3,3-difluoropiperidin-1-yl]pyrimidin-4-yl}-8-[(2R,3S)-3-(methanesulfonylmethyl)-2-methylazetidin-1-yl]-5-(propan-2-yl)isoquinolin-3-amine or N-{2-[(4S)-4-[2-(dimethylamino)ethoxy]-3,3-difluoropiperidin-1-yl]pyrimidin-4-yl}-8-[(2R,3S)-3-(methanesulfonylmethyl)-2-methylazetidin-1-yl]-5-(propan-2-yl)isoquinolin-3-amine], the IC50 at EGFR (L858R T790M C797S) was not above 15 nM; in assay [1] (setting [2]) it was not above 10 nM.
